Earlier results on one compound are cited in patent publication US7705028B2, “Farnesoid X receptor agonists” (GlaxoSmithKline LLC, priority 2005, dated 2010).

The test system of data set [1] is rodent models of hepatic fibrosis. To be noted: multiple rodent models; cited from earlier work.
Data set [2] relates to hepatic stellate cells (HSC). To be noted: cultured HSCs; cited from earlier work.

`CC[C@H]1[C@@H](O)[C@@H]2[C@H](CC[C@]3(C)[C@@H]([C@H](C)CCC(=O)O)CC[C@@H]23)[C@@]2(C)CC[C@@H](O)C[C@@H]12` [Example 6EtCDCA, 6-ethyl-chenodeoxycholic acid]: the hepatic fibrosis result in data set [1] was “prevent development and promote resolution of hepatic fibrosis”. The “expression of fibrotic markers such as α-smooth muscle actin and α1(I)collagen” value in data set [2] is listed as “decreased expression of fibrotic markers”.
